Source: patent US6653529B2, “Use of the maize X112 mutant ahas 2 gene and imidazolinone herbicides for selection of transgenic monocots, maize, rice and wheat plants resistant to the imidazolinone herbicides” (BASF Aktiengesellschaft, priority 2000, dated 2003)
Values joined by “and” are separate entries in the source; they are usually repeats but may differ in a detail not shown here. Identical values can stand only once.

Tests used:
Format in all cases: in vivo
[1] = tested on: 3395IR (homozygous XA17 imi-resistant corn line); assay: Greenhouse spray test of corn lines with imidazolinone herbicides, injury score; details: for Score, individual plants (0 dead plants, 5 healthy plants with no injury): 16 days after treatment; for M.S.: score 0 (dead) to 5 (healthy), 16 days
Source text: (§1) Grow one corn plant per pot (5×5 inch) in a 3×5 flat till three- to four-leaf stage (about 9 to 13 days depending on the weather). On the day of spraying, water the plants well and let excess water drip out. Spray plants on a belt-sprayer with the imidazolinone herbicides at desired rates. […] When temperature was too high, base water plants to prevent wilting. Closely observe the plants for the next two to three weeks. Symptoms of herbicide injury will be visible three days after spraying and susceptible plants will die within two to three weeks depending on temperature.
(§2) The plants were rated on a scale of 0-5 with 0 for dead plants and 5 for healthy plants with no or minimum injury.
(§3) Two transgenic hybrids BAa-4 and MAa-7 lines (see FIG. 5 for their pedigree), a non-transformed control line B×A (B73×A188), 8962IT (heterozygous XI12 imi-tolerant corn line), 8962 (wild type control) and 3395IR (homozygous XA17 imi-resistant corn line) (8962IT and 8962 were from ICI, now Garst Seed Company, Slater, Iowa 50244, and 3395IR was from Pioneer Hi-Bred International Inc, Iowa 50306-3453). Plants were sprayed with 4, 8, 16 or 20×PURSUIT® imazethapyr, ARSENAL® imazapyr, CADRE® imazameth or RAPTOR® imazamox. Plants were scored 0 to 5 (with 0 being dead plants, 5 being healthy plants with no injury) individually 16 days after herbicide treatments. […] For the four tested imidazolinones, transgenic plants could tolerate higher rates of ARSENAL® imazapyr, PURSUIT® imazethapyr, than CADRE® imazameth and RAPTOR® imazamox.

[2] = tested on: non-transformed control corn line BxA (B73×A188); assay: as above; details: for Score, individual plants (0 dead plants, 5 healthy plants with no injury): 16 days after treatment; for M.S.: score 0 (dead) to 5 (healthy), 16 days
Source text: as §1, §2, §3

[3] = tested on: transgenic corn hybrid BAa-4; assay: as above; details: BAa-4; for Score, individual plants (0 dead plants, 5 healthy plants with no injury): 16 days after treatment; for M.S.: score 0 (dead) to 5 (healthy), 16 days
Source text: as §1, §2, §3

[4] = tested on: transgenic corn hybrid MAa-7; assay: as above; details: MAa-7; for Score, individual plants (0 dead plants, 5 healthy plants with no injury): 16 days after treatment; for M.S.: score 0 (dead) to 5 (healthy), 16 days
Source text: as §1, §2, §3

[5] = tested on: 8692 (wild type control corn line); assay: as above; details: for Score, individual plants (0 dead plants, 5 healthy plants with no injury): 16 days after treatment; for M.S.: score 0 (dead) to 5 (healthy), 16 days
[6] = tested on: 8692IT (heterozygous XI12 imi-tolerant corn line); assay: as above; details: for Score, individual plants (0 dead plants, 5 healthy plants with no injury): 16 days after treatment; for M.S.: score 0 (dead) to 5 (healthy), 16 days
[7] = tested on: rice plants (transgenic Lines 26 and 29; Nt control); assay: Greenhouse herbicide tests on rice; details: for average seed set in two transgenic lines: PURSUIT, RAPTOR, CADRE, SCEPTER at all rates tested, ARSENAL 1 to 2×; for rate at which growth of transgenic plants was slightly affected: post-emergence, fresh weight and visual observation
Source text: We evaluated the response of transgenic rice to PURSUIT® imazethapyr application in the greenhouse. In this experiment, we included 2 transgenic lines and their untransformed counterpart (Nt). The transgenic lines, designated as Line 26 and 29, were T3 progeny derived from previously identified homozygous resistant transgenic plants containing the maize XI12 ahas2 gene driven by its own promoter. All seeds were pre-germinated in water for 2-3 days then grown in a planting mixture consisting of 1:1 soil and MetroMix 360 (The Scotts Company, Marysville, Ohio 43040) in 6-inch pots (2 seeds per pot) in the greenhouse and sprayed with PURSUIT® imazethapyr at 63, 125, or 250 g ai/ha. For post-emergence application, the plants were sprayed 15 days after seeding, at which time most plants had 3 leaves. For pre-emergence treatment, PURSUIT® imazethapyr was sprayed one day after seeding. Each treatment contained 20 plants and, and 3 replicates per treatment. One set of materials was not sprayed and used as control. The plants were grown in the greenhouse and harvested at maturity. The amount of PURSUIT® imazethapyr applied in this study (63, 125, or 250 g ai/ha) was close to 1, 2 or 4× field application rate for imi-resistant corn (refer to Table 3) since PURSUIT® imazethapyr is not currently labeled for use in rice fields. A custom designed belt sprayer was operated as described (Newhouse et al. 1992) for all herbicide applications. Five plants from each treatment were randomly chosen and individually measured for morphological traits. Means and standard deviations were calculated over three replications. Plant heights were measured from the base of the plant to the tip of the flag leaf 93 days after herbicide applications (DAH) and number of tillers per plant were counted 102-103 DAH. Data on number of panicles per plant and yield were collected after plants were harvested.
A total of 9 herbicides, 5 imidazolinones, two rice herbicides and ACCENT® (nicosulfuron) and CLASSIC® (clorimuron-ethyl) were applied in this study. Materials and methods were basically the same as described above, except that instead of 6″ pots, flats with 18 (3″×3″ per cell) cells were used, and 10-12 seeds were planted to one 3″×3″ cell. Ten plants were maintained in one cell in the post-emergence application. Each herbicide was sprayed at 4 different rates, 1, 2, 4, and 6×, as either pre or post-emergence applications with three replications per treatment. The name and amount of herbicide applied in this experiment and information relevant to their commercial applications are listed in Table 3. For simplicity and convenience, the lowest concentration used is referred as 1× rate, 2, 4 and 6× rates can be calculated as multiples of 1×.
To monitor plant response to various herbicides, data on fresh weight was collected. For pre-emergence applications, all plants from one cell were harvested 32 days after spraying (36-day old plants) and weighed. Twenty-nine days after herbicide application, 5 plants (44-day old plants) from each cell in the post-emergence application, were cut and weighed individually. Mean fresh weight for each treatment was calculated over three replications. The remaining 5 plants were grown in the greenhouse to maturity at which time, panicles of 3 plants were collected, and number of filled seeds and number of total kernels were counted to determine percentage of seed set.

[8] = 4×: PURSUIT 250, RAPTOR 160, ARSENAL 96, CADRE 400 g/ha
[9] = 8×: PURSUIT 500, RAPTOR 320, ARSENAL 192, CADRE 800 g/ha
[10] = 16×: RAPTOR 640 g/ha, ARSENAL 384 g/ha, CADRE 1.6 kg/ha

Row | SMILES | Score, individual plants (0 dead plants, 5 healthy plants with no injury) [1, 8] | M.S. [1, 8] | Score, individual plants (0 dead plants, 5 healthy plants with no injury) [1, 9] | M.S. [1, 9] | Score, individual plants (0 dead plants, 5 healthy plants with no injury) [1, 10] | M.S. [1, 10] | Score, individual plants (0 dead plants, 5 healthy plants with no injury) [2, 8] | M.S. [2, 8] | Score, individual plants (0 dead plants, 5 healthy plants with no injury) [2, 9] | M.S. [2, 9] | Score, individual plants (0 dead plants, 5 healthy plants with no injury) [2, 10] | M.S. [2, 10] | Score, individual plants (0 dead plants, 5 healthy plants with no injury) [3, 8] | M.S. [3, 8] | Score, individual plants (0 dead plants, 5 healthy plants with no injury) [3, 9] | M.S. [3, 9] | Score, individual plants (0 dead plants, 5 healthy plants with no injury) [3, 10] | M.S. [3, 10] | Score, individual plants (0 dead plants, 5 healthy plants with no injury) [4, 8] | M.S. [4, 8] | further results
1 | CC(C)C1(C)N=C(c2ncccc2C(=O)O)NC1=O (stereo not drawn) [ARSENAL ®, imazapyr] | 5 | 5 | 5 | 5 | 4 and 5 (4×) | 4.8 | 0 | 0 | 0 | 0 | 0 | 0 | 5 | 5 | 5 | 5 | 5 (2×) and 4 (3×) | 4.4 | 5 | 5 | Score, individual plants (0 dead plants, 5 healthy plants with no injury) [4, 9]: 5; M.S. [4, 9]: 5; Score, individual plants (0 dead plants, 5 healthy plants with no injury) [4, 10]: 5 (4×) and 4; M.S. [4, 10]: 4.8; Score, individual plants (0 dead plants, 5 healthy plants with no injury) [5, 8]: 0; M.S. [5, 8]: 0; Score, individual plants (0 dead plants, 5 healthy plants with no injury) [5, 9]: 0; M.S. [5, 9]: 0; Score, individual plants (0 dead plants, 5 healthy plants with no injury) [5, 10]: 0; M.S. [5, 10]: 0; Score, individual plants (0 dead plants, 5 healthy plants with no injury) [6, 8]: 4; M.S. [6, 8]: 4; Score, individual plants (0 dead plants, 5 healthy plants with no injury) [6, 9]: 4 (2×) and 3 (3×); M.S. [6, 9]: 3.4; Score, individual plants (0 dead plants, 5 healthy plants with no injury) [6, 10]: 4 and 3 (4×); M.S. [6, 10]: 3.2; seed set in the two transgenic lines ([7]; 4× (96 g ai/ha) and 6× (144 g ai/ha)): ≤ 20%; average seed set in two transgenic lines [7]: about 85%; effect on seed set of transgenic plants ([7]; higher rates): severe sterility; rate at which growth of transgenic plants was slightly affected [7]: 6 ×
2 | Cc1cnc(C2=NC(=O)C(C)(C(C)C)N2)c(C(=O)O)c1 (stereo not drawn) [CADRE ®, imazameth] | 5 | 5 | 5 | 5 | 4 (2×) and 5 (3×) | 4.6 | 0 | 0 | 0 | 0 | 0 | 0 | 5 | 5 | 3 (2×) and 2 (3×) | 2.4 | 3 and 1 and 0 (3×) | 0.8 | 5 (4×) and 4 | 4.8 | Score, individual plants (0 dead plants, 5 healthy plants with no injury) [4, 9]: 2 (2×) and 4 (2×) and 3; M.S. [4, 9]: 3; Score, individual plants (0 dead plants, 5 healthy plants with no injury) [4, 10]: 0 (2×) and 1 (3×); M.S. [4, 10]: 0.6; Score, individual plants (0 dead plants, 5 healthy plants with no injury) [5, 8]: 0; M.S. [5, 8]: 0; Score, individual plants (0 dead plants, 5 healthy plants with no injury) [5, 9]: 0; M.S. [5, 9]: 0; Score, individual plants (0 dead plants, 5 healthy plants with no injury) [5, 10]: 0; M.S. [5, 10]: 0; Score, individual plants (0 dead plants, 5 healthy plants with no injury) [6, 8]: 4 (3×) and 5 (2×); M.S. [6, 8]: 4.4; Score, individual plants (0 dead plants, 5 healthy plants with no injury) [6, 9]: 3 (3×) and 2 (2×); M.S. [6, 9]: 2.6; Score, individual plants (0 dead plants, 5 healthy plants with no injury) [6, 10]: 1 (2×) and 2 (3×); M.S. [6, 10]: 1.6; average seed set in two transgenic lines [7]: about 85%; rate at which growth of transgenic plants was slightly affected [7]: 6 ×
